Experimental data from paper PMC8069897, “A Targeted-Covalent Inhibitor of 17β-HSD1 Blocks Two Estrogen-Biosynthesis Pathways: In Vitro (Metabolism) and In Vivo (Xenograft) Studies in T-47D Breast Cancer Models” (Cancers, 2021).

Molecular target: T1, 17β-hydroxysteroid dehydrogenase type 1 (17β-HSD1) (Homo sapiens, UniProt P14061)
T1 construct: gene HSD17B1
T1 sequence (P14061 2-328): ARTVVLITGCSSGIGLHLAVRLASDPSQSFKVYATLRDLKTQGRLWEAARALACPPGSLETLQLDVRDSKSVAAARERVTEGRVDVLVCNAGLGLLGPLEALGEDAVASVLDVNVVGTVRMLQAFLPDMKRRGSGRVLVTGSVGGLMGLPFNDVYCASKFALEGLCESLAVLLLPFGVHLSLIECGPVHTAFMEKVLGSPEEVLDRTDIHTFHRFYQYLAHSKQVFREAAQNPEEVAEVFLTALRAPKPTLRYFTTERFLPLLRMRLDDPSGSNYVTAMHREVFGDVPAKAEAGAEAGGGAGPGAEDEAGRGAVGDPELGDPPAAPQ
Assay: inhibition of […]-DHEA to […]-5-diol conversion in intact T-47D cells (endogenous […]β-HSD1), TLC
Type: cell-based

C[C@]12CC[C@@H]3c4ccc(CCBr)cc4CC[C@H]3[C@@H]1C[C@H](Cc1cccc(C(N)=O)c1)[C@@H]2O [PBRM]
IC50: 770 nM
